Square brackets hold non-standard residues; d marks the D form. Ends that are not written are not given here. pS = N[C@@H](COP(=O)(O)O)C(=O)O
What was measured:
[1] = system: HLA-DR11; assay: Binding to human MHC class II molecule HLA-DR11; details: peptide 0.01-100 μM; FIG. 19
Description: (§1) FIG. 19: binding of the 131-151 and P140 peptides to the human major histocompatibility complex class II molecules; the results are expressed as a percentage of binding of the peptides to the HLA-DR1, -DR4 and DR11 molecules; the percentage inhibition is calculated as a function of the O.D. values measured in the presence of various concentrations of 131-151 and P140 peptides (0.01-100 μM).

[2] = system: CD4+ T cells of MRL/lpr lupic mice; assay: Recognition by CD4+ T cells of MRL/lpr lupic mice (ex vivo proliferation, IL-2 secretion); type: cell-based
Description: (§2) FIG. 1: recognition of the 131-151 peptide of the 70K protein by the CD4+ T cells of MRL/lpr (right column) or NZB/W lupic mice (left column); the peptide concentrations are indicated on the x-axis, the proliferation of the CD4+ T cells of MRL/lpr and BW mice, represented on the y-axis of the graphs of the first line, is measured ex vivo in the presence of the various concentrations of 131-151 peptide of the 70K protein; the proliferation is expressed in stimulation indices corresponding to the radioactivity incorporated in the DNA of the cells (in counts per minute) in the presence of peptide on the incorporation of radioactivity in the absence of peptide; the secretion of IL-2, represented on the y-axis of the graphs of the second line, is measured in the supernatants after 24 hrs of culture by a bio-assay; the IL-2 concentration is determined with a standard range of recombinant IL-2 and is expressed in mU/ml.
(§3) FIG. 13: recognition of the P140 peptide by the CD4^+ T lymphocytes (A) of MRL/lpr lupic mice; the graph on the left represents the proliferation of CD4^+ T cells expressed in stimulation indices as defined above in the presence of the 131-151 peptide, of the phosphorylated P137 and P140 peptides and of two scrambled peptides, phosphorylated or not phosphorylated (Sc and ScP); the positivity limit corresponds to 2.0; the graph on the right represents the secretion of IL-2 (mU/ml) in the presence of the 131-151 peptide, the P137 and P140 peptides and the Sc and ScP peptides; and by the antibodies (B) of MRL/lpr lupic mice; the results are expressed in titre of antibodies corresponding to the dilution allowing an O.D. value at 450 nm equal to 0.2 to be obtained in an ELISA test.

[3] = system: CD4+ T cells of NZB/W lupic mice; assay: Recognition by CD4+ T cells of NZB/W lupic mice; type: cell-based; details: FIG. 1
Description: as §2

[4] = system: pre-autoimmune MRL/lpr mice; assay: Administration to pre-autoimmune MRL/lpr mice, monitoring of disease development; type: in vivo
Description: The two peptides (phosphorylated in position 140 and non-phosphorylated) were used for a study of restoration of self-tolerance. These two peptides were injected by intravenous and intra-nasal route into preautoimmune mice, and the development of the disease in these mice was monitored.

[5] = system: major histocompatibility complex class II molecules (I-E^k, I-A^k, I-E^d, I-A^d); assay: Binding to murine MHC class II molecules (transfected fibroblasts, T hybridoma IL-2 competition); type: cell-based; details: murine (and human, as worded in b8); FIG. 2
Description: FIG. 2: binding of the 131-151 peptide to the molecules of the major histocompatibility complex of class II murines (I-E^k, I-A^k, I-E^d, I-A^d); fibroblasts transfected by the molecules I-E^k, or I-A^k, or I-E^d, or I-A^d are pre-incubated with different concentrations of the 131-151 peptide; after 30 minutes at 37° C., the 12-26CI or 16-33 analogue peptides of the β2-adrenergic receptor, as well as the respective T hybridomas which recognize these peptides in the adapted context (8I for I-E^k, E7E9 for I-A^k, 26.1 for I-E^d, and 26.2 for I-A^d) are added; the supernatants are recovered after 24 hrs of culture and the secretion of IL-2 is evaluated as previously; the results are expressed as a % inhibition representing the ability of the 131-151 peptide to inhibit the binding of the 12-26 CI and 16-33[…]2 analogue peptides to the class II molecules.

[6] = system: antibodies of MRL/lpr lupic mice; details: among 20 overlapping peptides of the 70K protein; cited from earlier work
[7] = system: HLA-DR1; assay: Binding to human MHC class II molecule HLA-DR1; details: peptide 0.01-100 μM; FIG. 19
Description: as §1

[8] = system: HLA-DR4; assay: Binding to human MHC class II molecule HLA-DR4; details: peptide 0.01-100 μM; FIG. 19
Description: as §1

[9] = system: antibodies of MRL/lpr lupic mice; assay: Recognition by antibodies of MRL/lpr lupic mice (ELISA titre); type: binding; details: compared with the non-phosphorylated parent peptide; FIG. 13
Excerpt: as §3

[10] = in vitro, CD4+ T cells purified from the ganglia of MRL/lpr mice
[11] = intravenous route, pre-autoimmune MRL/lpr mice, FIG. 14

| Substance | binding to HLA-DR11 [1] | proliferation of CD4+ T cells [2, 10] | secretion of IL-2 by CD4+ T cells [2, 10] | epitope of the 70K protein in the NZB/W mouse [3] | proteinuria ([4]; group injected with the peptide, versus saline control) | effect of administration on anti-DNA antibodies, glomerulonephritis and survival ([4]; pre-autoimmune mice, listed as parent peptide) | mice survived ([4]; to 35 weeks, p=0.2 compared to the control mice) | binding to major histocompatibility complex class II molecules [5] | recognition by the antibodies of MRL/lpr lupic mice [6] | binding to HLA-DR1 [7] | binding to HLA-DR4 [8] | recognition by the CD4+ T cells of lupic mice ([2]; compared with the non-phosphorylated parent peptide, FIG. 13) | appearance of glomerulonephritis ([4]; intranasal route, pre-autoimmune MRL/lpr mice, FIG. 14) | appearance of glomerulonephritis [4, 11] | production of antibodies directed against the DNA [4, 11] | survival of animals [4, 11] | recognition by the antibodies of lupic mice [9] |
| --- | --- | --- | --- | --- | --- | --- | --- | --- | --- | --- | --- | --- | --- | --- | --- | --- | --- |
| RIHMVYSKRSGKPRGYAFIEY (listed as Homo sapiens) [131-151] | capable of binding | capable of stimulating | capable of stimulating | major epitope | hardly reduced | does not on the other hand induce any statistically significant effect | 25% | capable of binding | recognized very early | capable of binding | capable of binding |  |  |  |  |  |  |
| P140: sequence SEQ ID NO: 1 (RIHMVYSKRSGKPRGYAFIEY) in which the serine in position 10 is phosphorylated (RIHMVYSKR[pS]GKPRGYAFIEY; listed as Homo sapiens) | capable of binding |  |  |  |  |  |  |  |  | capable of binding | capable of binding | to the same extent as or even to a greater extent than the non-phosphorylated peptide | not by intranasal route | delays the appearance of glomerulonephritis | reduces the production of large numbers of antibodies directed against the DNA | prolongs the survival of animals | to the same extent as or even to a greater extent than the non-phosphorylated peptide |

Reference: patent publication US8475800B2, “Phosphorylated derivatives of a U1-70K peptide and their use in the treatment of autoimmune pathologies” (Centre National de la Recherche Scientifique, priority 2001, dated 2013)
